From US10881110B2, “Herbicidal compositions comprising isoxazolo[5,4-b]pyridines” (BASF SE, priority 2014, dated 2021)

How the values were obtained:
Assay in all cases: greenhouse post-emergence herbicidal test
APESV = assay type: in vivo, Apera spica-venti; parameters: key to herbicidal activity against APESV found: rating on a scale from 0 to 100; details: post emergence, 20 days after treatment
In short: (§1)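 Post-emergence greenhouse test: plants in loamy sand, sprayed at 1–15 cm height with aqueous spray liquor from 10% emulsion concentrates, kept at 10-25 °C or 20-35 °C by species. Damage scored 0–100 (100 = complete destruction), usually 20 days after treatment. Expected additive effect E from Colby: E=X+Y−(X·Y/100).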

POLCO = assay type: in vivo, Polygonum convolvulus; parameters: key to herbicidal activity against POLCO found: rating on a scale from 0 to 100; details: post emergence
In short: as §1

ALOMY = assay type: in vivo, Alopecurus myosuroides; parameters: key to herbicidal activity against ALOMY found: rating on a scale from 0 to 100; details: post emergence, 20 days after treatment
In short: as §1

CHEAL = assay type: in vivo, Chenopodium album
Protocol: (§2) The culture containers used were plastic pots containing medium loamy sand with approximately 4.6% of humus and 69.9% sand as substrate. The seeds of the test plants were sown separately for each species.
(§3) For the post-emergence treatment, the test plants were grown to a plant height of from 1 to 15 cm, depending on the plant habit, and only then treated with the active compounds which had been suspended or emulsified in water. To this end, the test plants were either sown directly, and grown in the same containers, or they were first grown separately as seedlings and transplanted into the test containers a few days prior to treatment.
(§4) Depending on the species, the plants were kept at 10-25° C. and 20-35° C., respectively.
(§5) The test period extended over 1 to 3 weeks. During this time, the plants were tended and their response to the individual treatments was evaluated 20 days after treatment except mentioned otherwise.
(§6) Evaluation was carried out using a scale from 0 to 100. 100 means no emergence of the plants, or complete destruction of at least the above-ground parts, and 0 means no damage or normal course of growth.
(§7) The respective stated components A and B, and, if appropriate, C, were formulated as a 10% by weight strength emulsion concentrate and, with addition of the amount of solvent system, introduced into the spray liquor used for applying the active compound. In the examples, the solvent used was water.
(§8) In the examples below, using the method of S. R. Colby (1967) “Calculating synergistic and antagonistic responses of herbicide combinations”, Weeds 15, p. 22 ff., the value E, which is expected if the activity of the individual active compounds is only additive, was calculated. E=X+Y−(X·Y/100)

STEME = assay type: in vivo, Stellaria media; parameters: key: scale 0 to 100
In short: as §1

PHACA = assay type: in vivo
Protocol: as §2, §3, §4, §5, §6, §7, §8

GERDI = assay type: in vivo, Geranium dissectum; parameters: key to herbicidal activity against GERDI found: rating on a scale from 0 to 100; details: post emergence
In short: as §1

ECHCG = assay type: in vivo, Echinochloa crus-galli; parameters: key to herbicidal activity against ECHCG found / herbicidal activity against ECHCH found: scale 0 to 100; details: post emergence, 20 days after treatment
In short: as §1

LOLMU = assay type: in vivo, Lolium multiflorum
Protocol: as §2, §3, §4, §5, §6, §7, §8

GALAP = assay type: in vivo, Galium aparine; parameters: key to herbicidal activity against GALAP found: rating on a scale from 0 to 100; details: post emergence
In short: as §1

MATCH = assay type: in vivo, Matricaria recutita; parameters: key to herbicidal activity against MATCH found: rating on a scale from 0 to 100; details: post emergence
In short: as §1

ABUTH = assay type: in vivo, Abutilon theophrast; parameters: key to herbicidal activity against ABUTH found: rating on a scale from 0 to 100; details: post emergence
In short: as §1

CONAR = assay type: in vivo, Convolvulus arvensis; parameters: key: rating on a scale from 0 to 100
In short: as §1

LAMAM = assay type: in vivo, Lamium amplexicaule; parameters: key: scale 0 to 100
Protocol: as §2, §3, §4, §5, §6, §7, §8

PAPRH = assay type: in vivo, Papaver rhoeas; details: application rate a.i.: I.1 62.5 g/ha, B.87 (carfentrazone-ethyl) 1.75 g/ha, alone or as mixture (composition 1.87)
In short: as §1

SEBEX = assay type: in vivo, Sesbania exaltata; details: application rate a.i.: I.1 31.25 g/ha
Protocol: as §2, §3, §4, §5, §6, §7, §8

GERPU = assay type: in vivo, Geranium pusillum; details: application rate a.i.: I.1 31.25 g/ha
Protocol: as §2, §3, §4, §5, §6, §7, §8

PANMI = assay type: in vivo, Panicum miliaceum; details: application rate a.i.: I.1 125 g/ha, alone or as mixture (composition 1.113)
Protocol: as §2, §3, §4, §5, §6, §7, §8

POLPE = assay type: in vivo, Persicaria maculosa; parameters: key: scale 0 to 100; details: application rate a.i.: I.1 31.25 g/ha, B.139 (pyroxasulfone) 12.5 g/ha, alone or as mixture (composition 1.139)
Protocol: as §2, §3, §4, §5, §6, §7, §8

AMBEL = assay type: in vivo, Ambrosia artemisiifolia; parameters: key: rating on a scale from 0 to 100; details: application rate a.i.: I.1 31.25 g/ha, B.139 (pyroxasulfone) 12.5 g/ha, alone or as mixture (composition 1.139)
In short: as §1

[1] = a.i. g/ha: I.1 15.6, B.67 125, 20 days after treatment
[2] = a.i. g/ha: I.1 20.8, B.67 62.5, 20 days after treatment
[3] = a.i. g/ha: I.1 31.25, B.67 125, 20 days after treatment
[4] = a.i. g/ha: I.1 62.5, B.67 62.5, 20 days after treatment
[5] = a.i. g/ha: I.1 6.9, B.67 62.5, 20 days after treatment
[6] = a.i. g/ha: I.1 31.25, B.67 125, 20 days after treatment, sub-table r36-r43
[7] = a.i. g/ha: I.1 62.5, B.67 125, 20 days after treatment
[8] = a.i. g/ha: I.1 7.8, B.67 125, 20 days after treatment
[9] = application rate a.i.: I.1 31.25 g/ha, B.87 (carfentrazone-ethyl) 1.75 g/ha, alone or as mixture (composition 1.87)
[10] = application rate a.i.: I.1 62.5 g/ha, B.87 (carfentrazone-ethyl) 1.75 g/ha, alone or as mixture (composition 1.87)
[11] = B.87 (carfentrazone-ethyl) 1.75 g/ha, alone or as mixture (composition 1.87)
[12] = application rate a.i.: I.1 125 g/ha, B.113 (glyphosate) 135 g/ha, alone or as mixture (composition 1.113)
[13] = application rate a.i.: I.1 125 g/ha, B.113 (glyphosate) 33.75 g/ha, alone or as mixture (composition 1.113)
[14] = application rate a.i.: I.1 31.25 g/ha, B.139 (pyroxasulfone) 12.5 g/ha, alone or as mixture (composition 1.139)
[15] = application rate a.i.: I.1 31.25 g/ha, B.139 (pyroxasulfone) 25 g/ha, alone or as mixture (composition 1.139)
[16] = B.139 (pyroxasulfone) 25 g/ha, alone or as mixture (composition 1.139)

Structure (SMILES): CCNc1nc(Cl)nc(NC(C)C)n1 [B.67, atrazine]
- herbicidal activity against APESV found (APESV; a.i. g/ha: I.1 2.3, B.67 62.5): 60%
- herbicidal activity against APESV found (APESV; a.i. g/ha: I.1 6.9, B.67 62.5): 60%
- herbicidal activity against POLCO found (POLCO; [1]): 60%
- herbicidal activity against POLCO found (POLCO; [2]): 80%
- herbicidal activity against POLCO found (POLCO; [3]): 60%
- herbicidal activity against POLCO found (POLCO; [4]): 80%
- herbicidal activity against ALOMY found (ALOMY; a.i. g/ha: I.1 6.9, B.67 62.5): 35%
- herbicidal activity against ALOMY found (ALOMY; a.i. g/ha: I.1 20.8, B.67 62.5): 35%
- herbicidal activity against ALOMY found (ALOMY; a.i. g/ha: I.1 62.5, B.67 62.5): 35%
- herbicidal activity against CHEAL found (CHEAL; [5]): 75%
- herbicidal activity against CHEAL found (CHEAL; [1]): 80%
- herbicidal activity against CHEAL found (CHEAL; [2]): 75%
- herbicidal activity against CHEAL found (CHEAL; [3]): 80%
- herbicidal activity against STEME found (STEME; a.i. g/ha: I.1 2.3, B.67 62.5, 20 days after treatment): 80%
- herbicidal activity against STEME found (STEME; [5]): 80%
- herbicidal activity against STEME found (STEME; [1]): 75%
- herbicidal activity against STEME found (STEME; [2]): 80%
- herbicidal activity against STEME found (STEME; [3]): 75%
- herbicidal activity against STEME found (STEME; [6]): 75%
- herbicidal activity against PHACA found (PHACA; [3]): 30%
- herbicidal activity against PHACA found (PHACA; [7]): 30%
- herbicidal activity against GERDI found (GERDI; [8]): 70%
- herbicidal activity against GERDI found (GERDI; [1]): 70%
- herbicidal activity against GERDI found (GERDI; [3]): 85%
- herbicidal activity against GERDI found (GERDI; [6]): 85%
- herbicidal activity against GERDI found (GERDI; [7]): 70%
- herbicidal activity against ECHCG found (ECHCG; a.i. g/ha: I.1 20.8, B.67 62.5): 35%
- herbicidal activity against ECHCG found (ECHCG; a.i. g/ha: I.1 62.5, B.67 62.5): 35%
- herbicidal activity against LOLMU found (LOLMU; [8]): 35%
- herbicidal activity against LOLMU found (LOLMU; [1]): 35%
- herbicidal activity against LOLMU found (LOLMU; [3]): 35%
- herbicidal activity against LOLMU found (LOLMU; [4]): 20%
- herbicidal activity against LOLMU found (LOLMU; [7]): 35%
- herbicidal activity against GALAP found (GALAP; [1]): 70%
- herbicidal activity against GALAP found (GALAP; [2]): 65%
- herbicidal activity against GALAP found (GALAP; [3]): 70%
- herbicidal activity against GALAP found (GALAP; [4]): 65%
- herbicidal activity against MATCH found (MATCH; [3]): 70%
- herbicidal activity against MATCH found (MATCH; [6]): 70%
- herbicidal activity against MATCH found (MATCH; [7]): 50%
- herbicidal activity against ABUTH found (ABUTH; [8]): 60%
- herbicidal activity against ABUTH found (ABUTH; [1]): 60%
- herbicidal activity against ABUTH found (ABUTH; [3]): 60%
- herbicidal activity against ABUTH found (ABUTH; [6]): 60%
- herbicidal activity against ABUTH found (ABUTH; [7]): 60%
- herbicidal activity against CONAR found (CONAR; [8]): 65%
- herbicidal activity against CONAR found (CONAR; [1]): 65%
- herbicidal activity against CONAR found (CONAR; [2]): 60%
- herbicidal activity against CONAR found (CONAR; [3]): 65%
- herbicidal activity against CONAR found (CONAR; [4]): 60%
- herbicidal activity against CONAR found (CONAR; [7]): 65%

Structure (SMILES): CCOC(=O)C(Cl)Cc1cc(-n2nc(C)n(C(F)F)c2=O)c(F)cc1Cl (stereo not drawn) [B.87, carfentrazone-ethyl]
- herbicidal activity against LALAM, found (LAMAM; [9]): 80
- herbicidal activity against LAMAM, found (LAMAM; [10]): 80
- herbicidal activity against GERDI found (GERDI; [10]): 70
- herbicidal activity against PAPRH found (PAPRH): 30
- herbicidal activity against SEBEX, found (SEBEX; [11]): 75
- herbicidal activity against MATCH found (MATCH; [9]): 75
- herbicidal activity against MATCH found (MATCH; [10]): 75
- herbicidal activity against GERPU, found (GERPU; [11]): 75

Structure (SMILES): O=C(O)CNCP(=O)(O)O [B.113, glyphosate]
- herbicidal activity against GERDI found (GERDI; [12]): 80
- herbicidal activity against PANMI, found (PANMI; B.113 (glyphosate) 33.75 g/ha): 80
- herbicidal activity against PANMI, found (PANMI; B.113 (glyphosate) 135 g/ha): 90
- herbicidal activity against GALAP found (GALAP; [13]): 50
- herbicidal activity against GALAP found (GALAP; [12]): 80
- herbicidal activity against CONAR found (CONAR; [13]): 45

Structure (SMILES): Cn1nc(C(F)(F)F)c(CS(=O)(=O)C2=NOC(C)(C)C2)c1OC(F)F [B.139, pyroxasulfone]
- herbicidal activity against POLCO found (POLCO; [14]): 15
- herbicidal activity against POLPE found (POLPE): 55
- herbicidal activity against LAMAM, found (LAMAM; [15]): 45
- herbicidal activity against SEBEX, found (SEBEX; [16]): 35
- herbicidal activity against AMBEL found (AMBEL): 10
- herbicidal activity against ABUTH found (ABUTH; [15]): 60
- herbicidal activity against GERPU, found (GERPU; B.139 (pyroxasulfone) 12.5 g/ha, alone or as mixture (composition 1.139)): 0
- herbicidal activity against GERPU, found (GERPU; [16]): 25
- herbicidal activity against CONAR found (CONAR; [14]): 60
- herbicidal activity against CONAR found (CONAR; [15]): 60
